Where a SMILES comes first, the peptide text is derived from it. Where no end group is shown, it is not given here. The star is where a group is joined. 5FAM = O=C1OC2(c3ccc(O)cc3Oc3cc(O)ccc32)c2ccc(C(=O)*)cc21
Columns and labels:
[1] = tested on: monolayer of MDCKII cells; assay: Transwell apparent permeability (Papp) across a monolayer of MDCKII cells grown on a porous membrane; type: in vitro ADME, canine
Method: (§1) The transport peptides of the present invention were identified by modifying peptide sequences and testing these peptides in a Transwell assay measuring in vitro transcellular transport. The Transwell assay consists of two chambers separated from each other by a permeable porous membrane. Cells, most commonly canine kidney epithelial MDCK cells or human intestinal epithelial Caco-2 cells, are grown on the membrane and represent a model biological barrier. The drug, or peptide of interest, is added to the input chamber and the concentration in the receiver chamber is measured after a period of time. The rate at which the drug or peptide permeates across the cells (and the porous membrane) is the rate of drug's concentration increase in the receiver chamber after a period of time. The rate can be calculated and expressed in terms of apparent permeability (Papp), which takes into account the input concentration, the rate of concentration increase in the receiver well, solution volume in the receiver well, and the area of the cell monolayer. Substances with low permeability generally have Papp values on the order of 10^−7 cm/s, and substances with high permeabilities generally have Papp values on the order of 10^−5 cm/s or higher. There are several published reports where the CPPs were investigated for their ability to deliver cargo transcellularly using a Transwell assay: Violini et al reported low permeabilities of 3.1×10^−8 cm/s and 7.4×10^−8 cm/s for TC-radiolabeled Tat 48-57 across Caco-2 and MDCK II cells, respectively.
(§2) The apparent permeabilities (Papp) of four compounds were determined across a monolayer of MDCKII cells, grown on a porous membrane. The four compounds were the following and are represented in FIGS. 2-3: 1) a transport peptide of the present invention, CL, attached to 5-Carboxyfluorescein (MW: 376.3) and designated as [5-FAM]CL peptide, 2) 5-Carboxyfluorescein attached to H3R8 ([5-FAM] H3R8 MW: 2,263.5 and the H3R8 peptide is shown in FIG. 4b) 3) 5-Carboxyfluorescein designated as 5-FAM and 4) Lucifer Yellow designated as LY (MW:457.25, Product Number L-453, Life Technologies). The following concentrations of [5-FAM] CL, [5-FAM] H3R8, 5-FAM, and LY compound were applied to the monolayer of MDCKII cells at approximately 0.2 μM, 0.4-0.9 μM, 4 μM, and 100 μM, respectively. The peptides and dyes were resuspended in HEPES- and glucose-supplemented 1×HBSS buffer. The permeability experiments were conducted for 1 hour at 37° C. Error bars represent standard error (SE). CL and H3R8 are conjugated to 5-FAM at the N-termini. H3R8 is based on oligoarginine CPPs that has been reported to deliver cargo intracellularly. LY is used to assess monolayer integrity (Papp≤10̂−6 cm/s verifies monolayer integrity). The permeability of LY is on the order of 10̂−7 cm/s and is thus consistent with literature values for a monolayer with good barrier properties. [5-FAM]

[2] = as above; type: in vitro ADME, canine; conditions: MDCK
Method: as §1, §2

[3] = tested on: monolayer of MDCKII cells; type: cell-based, canine
Excerpt: The inventors identified cationic transport peptides that are capable of transcellular delivery of cargo across a monolayer of MDCKII cells grown on a porous membranes. One embodiment of the invention is a CL peptide, conjugated to a fluorescent dye 5-FAM (fluorescein), has a Papp value of (1.3±0.2)×10^−5 cm/s, which approaches the permeability rates of the fast-permeating molecules into the brain (Papp ≈10^−5 to 10^−4 cm/s). The CL peptide, conjugated to 5-FAM, enhanced 30-fold the rate of permeation of 5-FAM across the biological barrier. This is especially significant because MDCKII cells are virtually impermeable to 5-FAM (Papp=(4.1±0.6)×10^−7 cm/s) unless it is conjugated to the novel peptide. In addition, the CL peptide was able to deliver 5-FAM without compromising the junctional integrity of the model cell monolayer. Junctional integrity of the monolayer can be measured by transepithelial electrical resistance (TEER), which signifies resistance to the flow of ions across a cell monolayer. If the tight junctions between the cells are compromised, the TEER decreases.
FIG. 3 illustrates the % TEER change in the monolayer of MDCKII cells. Error bars represent SD with n=3 for all except LY, n=6. […] CL and [5-FAM] […] The data indicates the high permeability rates, observed for a transport peptide of the present invention, [5-FAM] […]

Molecule: O=C(O)c1ccc2c(c1)C(=O)OC21c2ccc(O)cc2Oc2cc(O)ccc21 [5-FAM, 5-Carboxyfluorescein]
- apparent permeability (Papp) ([1]; monolayer of MDCKII cells on porous membrane, 1 hour at 37° C, HEPES- and glucose-supplemented 1×HBSS): (4.1±0.6)×10^−7 cm/s

Molecule: CC(=O)N[C@@H](CCCCNC(=O)c1ccc2c(c1)C(=O)OC21c2ccc(O)cc2Oc2cc(O)ccc21)C(=O)NCC(=O)N[C@@H](CCCNC(=N)N)C(=O)N[C@@H](CC(C)C)C(=O)N[C@@H](CC(C)C)C(=O)N[C@@H](CCCNC(=N)N)C(=O)N[C@@H](CC(C)C)C(=O)N[C@@H](CC(C)C)C(=O)N[C@@H](CCCNC(=N)N)C(=O)N[C@@H](CCCNC(=N)N)C(=O)N[C@@H](CCCNC(=N)N)C(=O)N[C@@H](CCCNC(=N)N)C(=O)N[C@@H](CCCNC(=N)N)C(=O)N[C@@H](CCCNC(=N)N)C(=O)N[C@@H](CCCNC(=N)N)C(=O)N[C@@H](CCCNC(=N)N)C(N)=O [[5-FAM] CL] (Ac-K(5FAM)GRLLRLLRRRRRRRR-NH2; N-terminus and C-terminus assumed)
- Papp [2]: 13 ×10⁻⁶ cm/s
- enhancement of the rate of permeation (Papp) relative to 5-FAM ([1]; MDCK): 30 fold
- % TEER change after the permeability experiment [3]: did not result in a significant % TEER decrease

Molecule: HHHRRRRRRRR [H3R8]
- ability to deliver 5-FAM across a monolayer of MDCKII cells ([1]; MDCK): not capable to deliver 5-FAM across a monolayer of MDCKII cells

Molecule: KGRLLRLLRRRRRRRR [CL peptide]
- % TEER change after the permeability experiment [3]: did not significantly affect the TEER

Molecule: Lucifer Yellow [LY]
- apparent permeability (Papp) ([1]; MDCK): ~10̂−7 cm/s

Source: patent US20180193472A1, “TRANSPORT PEPTIDES FOR TRANSCELLULAR DELIVERY OF BIOLOGICAL AND THERAPEUTIC AGENTS” (priority 2017, published 2018)
